Assay results reported in US5817689A, “Indole derivatives having a 2-phenyl-ethanolamino-substituted lower alkyl group at the 2-or 3-position thereof” (priority 1994, dated 1998).
Counter-ions that a name gives are not always drawn. Like-named read-outs stand apart in the source and are kept apart here.

What was measured:
[1] = biological target: T1, human β2 -adrenergic receptor (Homo sapiens, UniProt P07550); experiment: Human β2-adrenergic receptor-stimulating activity (cAMP accumulation in CHO/pKREX21-8 cells); assay type: cell-based; conditions: for Emax: read-out: I.A. value β2 -receptor; for I.A. value β2 -receptor: intrinsic activity: maximal cAMP response relative to 10^-5 M (-)-isoproterenol = 100%
T1 construct: expressed in transfected cells; host or cells: CHO-K1, clone CHO/pKREX21-8
From the text: cDNA was synthesized with Poly(A)^+ RNA derived from human brain (Clontech: trade number; CL6516-1) by using SuperScript Systems (Life Technologies).
After the reaction mixture was digested with restriction endonucleases Sse8387I and HindIII, about 1.4 kbp fragment was isolated by electrophoresis. This fragment was ligated with expression vector pKCN1 digested with restriction endonucleases Sse8387I and HindIII, and was introduced into E. coli HB101 in a conventional manner. Plasmid DNA was prepared from the selected transformant, and the nucleotide sequence of the about 1.4 kbp fragment obtained by digestion of this plasmid DNA with restriction endonucleases Sse8387I and HindIII was determined. […] This plasmid was named as pKREX21 for highly expressing human β2 -adrenergic receptor, and was introduced into CHO-K1 in the same manner as the method of establishment of the cell line highly expressing human β3 -adrenergic receptor.
(§1) Experiment 1 Human β-adrenergic receptor-stimulating activity:
(§2) The cells were peeled off by incubation with phosphate-buffered saline containing 0.5 mM EDTA at 37° C. for 10 minutes after the medium was removed. The CHO/pKREX10-36 cells were collected by centrifugation, and suspended in Hanks' balanced salts (ICN Biomedicals) containing 1 mM L-ascorbic acid and 1 mM 3-isobutyl-1-methylxanthine at the concentration of about 2×10^6cells/ml. This suspension (100μl) and a test compound were mixed in the same balanced salt (500 μl) and incubated at 37° C. for 30 minutes, followed by boiling for 5 minutes to terminate the reaction. After centrifugation of the reaction mixture, the amount of cAMP in the supernatant was measured by using cAMP EIA System (Amersham).
Similarly, the amount of cAMP was measured by using CHO/pKREX21-8 for highly expressing human β2 -adrenergic receptor instead of the CHO/pKREX10-36 for highly expressing human β3 -adrenergic receptor.

[2] = biological target: T2, human β3 -adrenergic receptor (Homo sapiens, UniProt P13945); experiment: Human β3-adrenergic receptor-stimulating activity (cAMP accumulation in CHO/pKREX10-36 cells); assay type: cell-based; conditions: for stimulating activity of human β3 -adrenergic receptor (in words): conclusion from Table 5; for Ratio of EC50 β2 /β3: ratio of EC50 β2-receptor to EC50 β3-receptor; for Emax: read-out: I.A. value β3 -receptor
T2 construct: expressed in transfected cells; host or cells: CHO-K1 (ATCC CCL 61), clone CHO/pKREX10-36
Protocol: Establishment of the cell line highly expressing human β3 -adrenergic receptor
Separately, another expression vector for animal cells, pSV2-neo [Southern and Berg, J. Mol. Appl. Genet. […] These DNAs were ligated with DNA Ligation Kit (Takara Shuzo Co., Ltd.) and were introduced into E. coli HB101 in a conventional manner to give the transformants. Plasmid DNAs were prepared from the transformants and digested with a restriction endonuclease PstI. A clone which produced about 3.8 kbp, 2.2 kbp, 1.4 kbp, and 0.9 kbp fragments was selected to give a plasmid named pKCN0.
The reaction mixture was used for transformation of E. coli HB101 and plasmid DNAs were prepared from the selected transformants. The plasmid DNAs were digested with restriction endonucleases DraI and HindIII, and a clone which produced about 430 bp fragment was selected to give a plasmid named pKCN1 for expression vector.
10% Dimethyl sulfoxide was added to the reaction mixture at the PCR reaction.
After the reaction mixture was digested with restriction endonucleases Sse8387I and StuI, about 1.3 kbp fragment was isolated by electrophoresis. This fragment was ligated with expression vector pKCN1 which was digested with restriction endonucleases Sse8387I and EcoRV, and the resultant was introduced into E. coli HB101 in a conventional manner. Plasmid DNA was prepared from the selected transformant and the nucleotide sequence of the about 1.3 kbp fragment obtained by digestion of the plasmid DNA with restriction endonucleases Sse8387I and XhoI was determined. […] This plasmid for expressing human β3 -adrenergic receptor was named as pKREX10.
The reaction mixture was filtered with glass filter GF/C (Whatman) presoaked with 0.3% polyethyleneimine and washed by using BIO-DOT apparatus (Bio-Rad Laboratories), and the radioactivity on the filter was counted by γ-ray counter. […] Establishment of the cell line highly expressing human β2 -adrenergic receptor
as §1, §2

[3] = tested on: glucose level in the blood; experiment: Blood glucose reducing activity on fasted mouse; assay type: in vivo, ddY male mouse; conditions: 3 h, read-out: Blood glucose reducing activity (ED25)
Protocol: Experiment 2 Blood glucose reducing activity on fasted mouse:
A test compound suspended in 0.5% tragacanth solution was orally administered to a ddY male mouse (weight: 20-30 g) under being fasted, and the blood was collected before and at three hours after the administration of the test compound. The glucose level in the blood was determined by the method of Kunst A., et al. (Hexokinase/G6PDH method) [Bergmeyer, H. U. (eds.), […], vol. VI, 3rd edition, Verlag Chemie GmbH, Weinheim·Deerfield Beach, Florida·Basel, 163-172 (1984)]. The blood glucose reducing activity of the test compound was expressed by ED25 value which is a concentration of the test compound required to reduce the glucose level in blood before the administration of the test compound by 25%. Gliclazide was used as a reference compound which is a commercially available drug for treatment of diabetes mellitus.

bacteria = conditions: literature compound; cited from earlier work
[4] = tested on: retroperitoneal (white) and interscapular (brown) adipose tissue; experiment: Anti-obesity activity on diabetic obese mouse; assay type: in vivo, diabetic obese mouse (KK-Ay/Ta, Jcl. female); conditions: 3 mg/kg/day oral for three weeks, significantly different from control, p < 0.01
Protocol: Experiment 3 Anti-obesity activity on diabetic obese mouse:
A test compound suspended in 0.5% tragacanth solution was orally administrated to a diabetic obese mouse (KK-Ay/Ta, Jcl. female; 50-60 g, Clea Japan Inc.) at a dose of 3 mg/kg/day for three weeks, and then, the retroperitoneal adipose tissue and the interscapulal adipose tissue were taken, and the weights thereof were measured as white adipose tissue and brown adipose tissue, respectively.

Central nervous system = conditions: literature compound; cited from earlier work
[5] = 25% reduction of blood glucose, fasted ddY male mice, oral, three hours after administration
[6] = 50% of cAMP accumulation, CHO/pKREX10-36, 37° C., 30 minutes, read-out: EC50 value β3 -receptor

T1 sequence (P07550 whole entry): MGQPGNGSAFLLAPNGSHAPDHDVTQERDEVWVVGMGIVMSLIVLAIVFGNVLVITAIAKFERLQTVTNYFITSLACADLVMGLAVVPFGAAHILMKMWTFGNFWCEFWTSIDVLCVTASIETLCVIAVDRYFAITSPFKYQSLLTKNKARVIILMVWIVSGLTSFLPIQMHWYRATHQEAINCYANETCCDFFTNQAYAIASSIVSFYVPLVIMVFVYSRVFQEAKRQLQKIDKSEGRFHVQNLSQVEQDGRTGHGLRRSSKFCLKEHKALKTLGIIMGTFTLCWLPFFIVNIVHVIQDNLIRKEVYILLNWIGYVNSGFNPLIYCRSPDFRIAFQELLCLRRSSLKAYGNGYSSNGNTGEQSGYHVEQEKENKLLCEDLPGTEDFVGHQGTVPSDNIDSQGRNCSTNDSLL
T2 sequence (P13945 whole entry): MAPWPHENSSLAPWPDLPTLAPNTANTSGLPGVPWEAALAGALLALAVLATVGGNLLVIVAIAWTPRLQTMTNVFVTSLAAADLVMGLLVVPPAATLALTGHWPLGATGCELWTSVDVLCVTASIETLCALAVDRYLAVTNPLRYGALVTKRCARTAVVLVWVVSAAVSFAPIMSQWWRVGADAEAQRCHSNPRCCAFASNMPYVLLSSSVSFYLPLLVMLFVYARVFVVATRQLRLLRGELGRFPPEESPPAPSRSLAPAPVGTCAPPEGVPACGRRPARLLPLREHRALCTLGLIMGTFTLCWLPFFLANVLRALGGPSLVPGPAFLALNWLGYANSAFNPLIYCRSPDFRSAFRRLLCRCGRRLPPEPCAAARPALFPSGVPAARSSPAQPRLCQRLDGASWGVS

| SMILES | EC50 [1] [nM] | Emax [1] [%] | EC50 [2] [nM] | Emax [2] [%] | ED25 ([3]; po) [mg/kg] | EC50 [2, 6] [nM] | other results |
| --- | --- | --- | --- | --- | --- | --- | --- |
| COC(=O)COc1cccc2c(CC(C)NC[C@H](O)c3cccc(Cl)c3)c[nH]c12 (stereo partly drawn) [Example 14, 2-[3-(7-methoxycarbonylmethoxyindol-3-yl)-2-propylamino]-(1R)-1-(3-chlorophenyl)ethanol] | 6 | 29 | 0.43 | 95 | – | – | stimulating activity of human β3 -adrenergic receptor (in words) [2]: potent stimulating activity of human β3 -adrenergic receptor; Ratio of EC50 β2 /β3 [2]: 14.0; adrenoceptor selectivity for human β3 -adrenergic receptor (in words) ([2]; β3 versus β2, conclusion from Table 5): excellent adrenoceptor selectivity for human β3 -adrenergic receptor |
| Cc1cccc2c(CC(C)NCC(O)c3cccc(Cl)c3)c[nH]c12 (centres unmarked) [Example 6] | 88 | 19 | 35 | 91 | 4.5 | – | Ratio of EC50 β2 /β3 [2]: 2.5 |
| Cc1ccc(S(=O)(=O)NC(=O)NN2CC3CCCC3C2)cc1 (centres unmarked) [Gliclazide, reference compound] | – | – | – | – | – | – | ED25 [3, 5]: 0.87 mg/kg |
| OC(CNCCc1c[nH]c2ccc(Cl)cc12)c1ccccc1 (centres unmarked) [Compound A, reference compound] | – | 16 | – | 92 | – | 910 | EC50 ([1]; 50% of cAMP accumulation, CHO/pKREX21-8, 37° C., 30 minutes, read-out: EC50 value β2 -receptor): 410 nM; stimulating activity of human β3 -adrenergic receptor (in words) [2]: quite weak human β3 -adrenergic receptor-stimulating activity; Ratio of EC50 β2 /β3 [2]: 0.5 |
| OC(CNCCc1c[nH]c2ccccc12)c1ccccc1 (centres unmarked) [Compound B, reference compound] | – | – | – | 100 | – | 180 | I.A. value β2 -receptor [1]: 8%; stimulating activity of human β3 -adrenergic receptor (in words) [2]: quite weak human β3 -adrenergic receptor-stimulating activity |
| COc1cccc2c(CC(C)NC[C@H](O)c3cccc(Cl)c3)c[nH]c12 (single isomer, unassigned) [Example 1-A-b, 2-[(2S or 2R)-3-(7-methoxyindol-3-yl)-2-propylamino]-(1R)-1-(3-chlorophenyl)ethanol] | 3.6 | 35 | 0.36 | 89 | – | – | – |
| COc1ccc(C(O)CNCCc2c[nH]c3ccccc23)cc1Br (centres unmarked) | – | – | – | – | – | – | Pharmacological Activity (antibacterial) (bacteria): Antibacterial activity |
| Cc1ccc2c(CC(C)NCC(O)c3cccc(Cl)c3)c[nH]c2c1 (centres unmarked) [Example 5] | 33 | 41 | – | 95 | 4.5 | 12 | – |
| CCOc1cccc2c(CC(C)NCC(O)c3cccc(Cl)c3)c[nH]c12 (centres unmarked) [Example 2, 2-[3-(7-ethoxyindol-3-yl)-2-propylamino]-1-(3-chlorophenyl)ethanol] | 55 | 31 | 2 | 117 | 0.03 | – | stimulating activity of human β3 -adrenergic receptor (in words) [2]: potent stimulating activity of human β3 -adrenergic receptor |
| COc1cccc2c(CC(C)NCC(O)c3cccc(Cl)c3)c[nH]c12 (centres unmarked) [Example 1, 2-[3-(7-methoxyindol-3-yl)-2-propylamino]-1-(3-chlorophenyl)ethanol] | 25 | 33 | – | 113 | 0.05 | 1.7 | Weight of brown adipose tissue ([4]; control 0.460 ± 0.03): 0.289 ± 0.04 g; Weight of white adipose tissue ([4]; control 4.92 ± 0.28): 2.35 ± 0.12 g |
| COC(=O)COc1ccc2c(CC(C)NCC(O)c3cccc(Cl)c3)c[nH]c2c1 (centres unmarked) [Example 7] | 33 | 15 | 25 | 76 | 1.5 | – | Ratio of EC50 β2 /β3 [2]: 1.3 |
| COc1ccc2c(CC(C)NCC(O)c3cccc(Cl)c3)c[nH]c2c1OC (centres unmarked) [Example 12] | 31 | 13 | 4 | 98 | – | – | Ratio of EC50 β2 /β3 [2]: 7.8 |
| COC(=O)c1ccc2c(CC(C)NCC(O)c3cccc(Cl)c3)c[nH]c2c1 (centres unmarked) [Example 8] | – | – | 31 | 92 | 1.4 | – | I.A. value β2 -receptor [1]: 5% |
| CC(Cc1c[nH]c2ccccc12)NCC(O)c1ccc(O)c(O)c1 (centres unmarked) | – | – | – | – | – | – | Pharmacological Activity (central nervous system) (Central nervous system): Central nervous system inhibitory |
| CC(Cc1c[nH]c2cc(OCC(=O)O)ccc12)NCC(O)c1cccc(Cl)c1 (centres unmarked) [Example 13, 2-[3-(6-carboxymethoxyindol-3-yl)-2-propylamino]-1-(3-chlorophenyl)ethanolsodium salt] | – | – | 31 | 101 | – | – | I.A. value β2 -receptor [1]: 6% |
| CC(C)NC[C@H](O)c1ccc(O)c(O)c1 [IP, (-)Isoproterenol, reference compound] | – | – | – | – | – | – | I.A. value β3 -receptor ([2]; intrinsic activity: maximal cAMP response relative to 10^-5 M (-)-isoproterenol = 100%): 100% |
| COc1ccc2c(CC(C)NCC(O)c3cccc(Cl)c3)c[nH]c2c1 (centres unmarked) [Example 3] | 170 | 22 | – | 102 | 3.3 | 22 | – |
| CC(Cc1c[nH]c2c(OCc3ccccc3)cccc12)NCC(O)c1cccc(Cl)c1 (centres unmarked) [Example 4] | 43 | 36 | 16 | 116 | – | – | Ratio of EC50 β2 /β3 [2]: 2.7 |
| CCOc1cccc2c(CC(C)NC[C@H](O)c3cccc(Cl)c3)c[nH]c12 (stereo partly drawn) [Example 2-A, 2-[3-(7-ethoxyindol-3-yl)-2-propylamino]-(1R)-1-(3-chlorophenyl)ethanol] | 15 | 23 | – | 96 | – | 0.96 | – |
| O=[N+]([O-])c1cccc(C(O)CNCCc2c[nH]c3ccccc23)c1 (centres unmarked) [Compound C, reference compound] | – | – | – | 105 | – | 540 | I.A. value β2 -receptor [1]: 5%; stimulating activity of human β3 -adrenergic receptor (in words) [2]: quite weak human β3 -adrenergic receptor-stimulating activity |
| Cc1cccc2[nH]cc(CC(C)NCC(O)c3cccc(Cl)c3)c12 (centres unmarked) [Example 10] | – | – | – | – | – | – | ED25 [3, 5]: 0.1 mg/kg |
